Source: PubChem BioAssay (NCI)
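The compound was tested at five concentrations on cells cultured in 96-well plates, with a 48-hour exposure period. At the TGI there is no net growth.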

Legend:
Assay in all cases: growth of human tumour cells (NCI), 48 h
[1] = tested on: LOX IMVI melanoma
[2] = tested on: OVCAR-5 ovarian
[3] = tested on: MALME-3M melanoma
[4] = tested on: HT29 colon
[5] = tested on: ACHN renal
[6] = tested on: EKVX NSCLC
[7] = tested on: HCT-116 colon
[8] = tested on: SR leukemia
[9] = tested on: U251 CNS
[10] = tested on: M14 melanoma
[11] = tested on: A549 NSCLC
[12] = tested on: CCRF-CEM leukemia
[13] = tested on: DMS 273 small cell lung
[14] = tested on: SF-268 CNS
[15] = tested on: SK-OV-3 ovarian
[16] = tested on: HOP-18 NSCLC
[17] = tested on: SK-MEL-5 melanoma
[18] = tested on: HOP-92 NSCLC
[19] = tested on: MOLT-4 leukemia
[20] = tested on: COLO 205 colon
[21] = tested on: UACC-62 melanoma
[22] = tested on: NCI-H23 lung
[23] = tested on: IGROV1 ovarian
[24] = tested on: SK-MEL-28 melanoma
[25] = tested on: XF 498 CNS
[26] = tested on: NCI-H522 lung
[27] = tested on: UACC-257 melanoma
[28] = tested on: DMS 114 small cell lung
[29] = tested on: 786-0 renal
[30] = tested on: SN12C renal
[31] = tested on: HCT-15 colon
[32] = tested on: RPMI-8226 leukemia
[33] = tested on: SF-539 CNS
[34] = tested on: CAKI-1 renal
[35] = tested on: SF-295 CNS
[36] = tested on: NCI-H460 lung
[37] = tested on: OVCAR-8 ovarian
[38] = tested on: K-562 leukemia
[39] = tested on: TK-10 renal
[40] = tested on: OVCAR-4 ovarian
[41] = tested on: KM12 colon
[42] = tested on: UO-31 renal
[43] = tested on: DLD-1 colon
[44] = tested on: SNB-75 CNS
[45] = tested on: KM20L2 colon
[46] = tested on: SNB-78 CNS
[47] = tested on: M19-MEL melanoma
[48] = tested on: SK-MEL-2 melanoma
[49] = tested on: HCC-2998 colon
[50] = tested on: A498 renal
[51] = tested on: OVCAR-3 ovarian
[52] = tested on: HOP-62 NSCLC
[53] = tested on: NCI-H226 lung
[54] = tested on: HL-60(TB) leukemia
[55] = tested on: SW-620 colon
[56] = tested on: SNB-19 CNS
[57] = tested on: MCF7 breast
[58] = tested on: NCI/ADR-RES ovarian
[59] = tested on: MDA-N
[60] = tested on: MDA-MB-231 breast
[61] = tested on: RXF 393 renal
[62] = tested on: DU-145 prostate
[63] = tested on: BT-549 breast
[64] = tested on: MDA-MB-435
[65] = tested on: T-47D breast
[66] = tested on: PC-3 prostate
[67] = tested on: HS 578T breast

**Q.** Which TGI [1] does the source give for `c1ccc2cc(-c3cc4ccccc4s3)ccc2c1` here?
**A.** > 100 µM

**Q.** What about the TGI [2] of the same molecule?
**A.** > 100 µM

**Q.** And the TGI [3]?
**A.** > 100 µM

**Q.** What about the TGI [4] of the same molecule?
**A.** > 100 µM

**Q.** What about the TGI [5] of the same molecule?
**A.** > 100 µM

**Q.** And the TGI [6]?
**A.** > 100 µM

**Q.** What about the TGI [7] of the same molecule?
**A.** > 100 µM

**Q.** What about the TGI [8] of the same molecule?
**A.** > 100 µM

**Q.** What about the TGI [9] of the same molecule?
**A.** > 100 µM

**Q.** And the TGI [10]?
**A.** > 100 µM

**Q.** And the TGI [11]?
**A.** > 100 µM

**Q.** And the TGI [12]?
**A.** > 100 µM

**Q.** And the TGI [13]?
**A.** > 100 µM

**Q.** What about the TGI [14] of the same molecule?
**A.** > 100 µM

**Q.** What about the TGI [15] of the same molecule?
**A.** > 100 µM

**Q.** What about the TGI [16] of the same molecule?
**A.** > 100 µM

**Q.** And the TGI [17]?
**A.** > 100 µM

**Q.** And the TGI [18]?
**A.** > 100 µM

**Q.** What about the TGI [19] of the same molecule?
**A.** > 100 µM

**Q.** And the TGI [20]?
**A.** > 100 µM

**Q.** What about the TGI [21] of the same molecule?
**A.** > 100 µM

**Q.** And the TGI [22]?
**A.** > 100 µM

**Q.** What about the TGI [23] of the same molecule?
**A.** > 100 µM

**Q.** What about the TGI [24] of the same molecule?
**A.** > 100 µM

**Q.** What about the TGI [25] of the same molecule?
**A.** > 100 µM

**Q.** And the TGI [26]?
**A.** > 100 µM

**Q.** And the TGI [27]?
**A.** > 100 µM

**Q.** What about the TGI [28] of the same molecule?
**A.** > 100 µM

**Q.** What about the TGI [29] of the same molecule?
**A.** > 100 µM

**Q.** What about the TGI [30] of the same molecule?
**A.** > 100 µM

**Q.** What about the TGI [31] of the same molecule?
**A.** > 100 µM

**Q.** What about the TGI [32] of the same molecule?
**A.** > 100 µM

**Q.** What about the TGI [33] of the same molecule?
**A.** > 100 µM

**Q.** What about the TGI [34] of the same molecule?
**A.** > 100 µM

**Q.** And the TGI [35]?
**A.** > 100 µM

**Q.** What about the TGI [36] of the same molecule?
**A.** > 100 µM

**Q.** What about the TGI [37] of the same molecule?
**A.** > 100 µM

**Q.** What about the TGI [38] of the same molecule?
**A.** > 100 µM

**Q.** And the TGI [39]?
**A.** > 100 µM

**Q.** And the TGI [40]?
**A.** > 100 µM

**Q.** And the TGI [41]?
**A.** > 100 µM

**Q.** And the TGI [42]?
**A.** > 100 µM

**Q.** What about the TGI [43] of the same molecule?
**A.** > 100 µM

**Q.** And the TGI [44]?
**A.** 93.7 µM

**Q.** What about the TGI [45] of the same molecule?
**A.** > 100 µM

**Q.** What about the TGI [46] of the same molecule?
**A.** > 100 µM

**Q.** And the TGI [47]?
**A.** > 100 µM

**Q.** What about the TGI [48] of the same molecule?
**A.** > 100 µM

**Q.** What about the TGI [49] of the same molecule?
**A.** > 100 µM

**Q.** And the TGI [50]?
**A.** > 100 µM

**Q.** And the TGI [51]?
**A.** > 100 µM

**Q.** What about the TGI [52] of the same molecule?
**A.** > 100 µM

**Q.** And the TGI [53]?
**A.** > 100 µM

**Q.** What about the TGI [54] of the same molecule?
**A.** > 100 µM

**Q.** And the TGI [55]?
**A.** > 100 µM

**Q.** What about the TGI [56] of the same molecule?
**A.** > 100 µM

**Q.** What does the source list for `O=C1Sc2cc3ccccc3cc2C(=O)Sc2ccc(Br)cc21`?
**A.** TGI [1]: 3.97 µM; TGI [2]: 25.5 µM; TGI [3]: 26.5 µM; TGI [57]: 37.9 µM; TGI [4]: 13.1 µM; TGI [5]: 6.02 µM; TGI [6]: 28.1 µM; TGI [7]: 16.3 µM; TGI [8]: 9.14 µM; TGI [9]: 5.27 µM; TGI [10]: 14.4 µM; TGI [11]: 30.9 µM; TGI [58]: 15.6 µM; TGI [12]: > 19.7 µM; TGI [59]: 18 µM; TGI [14]: 23.2 µM; TGI [15]: 29.3 µM; TGI [60]: 12.2 µM; TGI [17]: 27.5 µM; TGI [18]: 20.9 µM; TGI [19]: > 31.6 µM; TGI [20]: 34.9 µM; TGI [21]: 10.5 µM; TGI [22]: 23.3 µM; TGI [61]: 7.88 µM; TGI [23]: 16.8 µM; TGI [24]: 9.79 µM; TGI [26]: 4.52 µM; TGI [27]: 17.6 µM; TGI [29]: 5.63 µM; TGI [30]: 16.8 µM; TGI [31]: 7.71 µM; TGI [62]: 16.9 µM; TGI [32]: > 100 µM; TGI [33]: 27 µM; TGI [34]: 14.8 µM; TGI [35]: 29.1 µM; TGI [36]: 24.2 µM; TGI [37]: 9.53 µM; TGI [38]: 19.2 µM; TGI [39]: 17.8 µM; TGI [40]: 35.2 µM; TGI [41]: 21.2 µM; TGI [44]: 13.3 µM; TGI [63]: 12.1 µM; TGI [64]: 13.4 µM; TGI [48]: 12.8 µM; TGI [49]: 19.3 µM; TGI [65]: 23.8 µM; TGI [50]: 33.4 µM; TGI [66]: 12.9 µM; TGI [51]: 5.21 µM; TGI [52]: 18.3 µM; TGI [53]: 42.6 µM; TGI [54]: > 100 µM; TGI [55]: 14.2 µM; TGI [56]: 32.2 µM; TGI [67]: > 35 µM
